Data taken from US4981869A, “Xanthates as antitumor agents” (priority 1980, dated 1991).
Where two headings read alike, the source gives them in different places.

How the values were obtained:
[1] = tested on: numerous different representative virus types; assay: antiviral activity, plaque-reduction tests against numerous virus types; assay type: cell-based; settings: in words
[2] = tested on: transformed (tumor) cells; assay: antitumor activity (general statement); assay type: cell-based; settings: in words
Source text: The compounds of the present invention, and pharmaceutical compositions containing the same, display a drastic influence on the growth patterns and on the morphological appearance of various experimentally-transformed cells in tissue culture while, at the same time, not influencing these properties of normal cell cultures.

same viral strain = assay: refined plaque reduction assay; assay type: cell-based; settings: read-out: IC50 (50% reduction in plaque forming units)
selected herpes viruses = assay: resistance development test; assay type: cell-based; settings: prolonged suboptimal concentrations, manifold passage
[3] = tested on: primate (monkey) cells transformed by human brain tumor (oligodendroglioma) DNA; assay: Low Serum Test
Source text: Normal cells fail to grow under these conditions.
In this test, as a tissue culture, primate (monkey) cells are used which have acquired the transformed phenotype after exposure of the cells to human brain tumor (oligodendroglioma) genetic substance (DNA). A genetically-homogeneous transformed tissue culture (a clonal line) is exposed to forty (40) micrograms per milliliter of the test compound for a period of four (4) days. Parallel cultures are maintained during the treatment.
After the transient exposure to the drug, the cells are suspended in drug-free medium (at pH 7.2) containing ten percent (10%) serum, or in low-serum (0.5%).

Influenza A2 = assay: plaque inhibition test, influenza; assay type: cell-based; settings: Substance concentration: 200γ/0,02 ml; 1% solution; chick fibroblasts
Vaccine virus = assay type: cell-based; settings: Substance concentration: 200γ/0,02 ml; 1% solution; chick fibroblasts
Herpes virus [4] = assay: plaque inhibition test, herpes; assay type: cell-based; settings: Substance concentration: 200γ/0,02 ml; 1% solution; human amnion cells
various virus strains = assay: in-vitro plaque reduction test; assay type: cell-based; settings: 20 γ/ml
Herpes virus [5] = settings: two immunosuppressed patients; Burns et al., The Lancet, Feb. 20, 1982; cited from earlier work
Coxsackie B5 = assay: plaque-reduction test, Coxsackie B5; assay type: cell-based; settings: twenty micrograms per milliliter, on the order of, read-out: Percentage PFU compared with control at 100%
Experimental: (§1) The compounds of the invention are active in the plaque-reduction test, a standard test for determining antiviral activity and potency, as already stated. One such standard direct plaque assay is that described by E. C. Herrmann Jr. et al., Proc. Soc. Exptl. Biol. Med. 103, 625 […]. This is the test procedure first employed and its principle is well established. It involves the following: Tissue culture cells are grown in small wells as monolayers and infected with appropriate virus dilutions. They are then overlayed with semisolid media to prevent spreading of the viral progeny to originally-uninfected cells. From the infected cells alone, foci of secondary infections develop within three (3) days, and these can be visualized as plaques after appropriate staining according to well-known procedure. To determine the inhibitory effect of a compound, the compound is administered directly onto the infected cells prior to the addition of the overlay, and the virus yield is then compared with the yield from untreated infected cell cultures. The percentage of plaque reduction or inhibition is then expressed in comparison with the 100% plaque-forming units (PFU) as taken from the uninhibited control.
(§2) When compared with the uninhibited control, plaque reduction with a compound of the invention at twenty micrograms per milliliter was on the order of the following: […]

HSV-I = assay: plaque-reduction test, HSV-I; assay type: cell-based; settings: Human alphaherpesvirus 1, twenty micrograms per milliliter, on the order of, read-out: Percentage PFU compared with control at 100%
Experimental: as §1, §2

HSV-I-ISO 3 = assay: plaque-reduction test, HSV-I-ISO 3; assay type: cell-based; settings: twenty micrograms per milliliter, on the order of, read-out: Percentage PFU compared with control at 100%
Experimental: as §1, §2

HSV-I-WA = assay: plaque-reduction test, HSV-I-WA; assay type: cell-based; settings: twenty micrograms per milliliter, on the order of, read-out: Percentage PFU compared with control at 100%
Experimental: as §1, §2

HSV II-HG-52 = assay: plaque-reduction test, HSV II-HG-52; assay type: cell-based; settings: twenty micrograms per milliliter, on the order of, read-out: Percentage PFU compared with control at 100%
Experimental: as §1, §2

HSV I-ISO 6 = assay: plaque-reduction test, HSV I-ISO 6; assay type: cell-based; settings: twenty micrograms per milliliter, on the order of, read-out: Percentage PFU compared with control at 100%
Experimental: as §1, §2

VSV = assay: microbe, parasite or virus in culture; assay type: cell-based; settings: Vesicular stomatitis virus, read-out: Percentage PFU compared with control at 100%
HSV-I-A NG = assay: plaque-reduction test, HSV-I-A NG; assay type: cell-based; settings: 5.5 micrograms/ml, on the order of, read-out: Percentage PFU compared with control at 100%
Experimental: as §1, §2

[6] = tested on: transformed hamster cells; assay: reversion of transformed hamster cells (FIG. 3); assay type: cell-based; settings: 20 micrograms per milliliter
Source text: FIG. 3 is a graph showing the reversion of transformed malignant phenotype cells shown in FIG. 1, i.e., transformed hamster cells which produce tumors in the animal, to phenotypically normal or flat revertant cells of the type shown in FIG. 2, which reversion was accomplished by a transient treatment of the malignant cells in tissue culture medium with twenty (20) micrograms per milliliter of a compound of the invention, in this case the compound D609, for three (3) succeeding passages, the period of each passage having a duration of one week. In the graph, the empty circles depict untreated cultures, whereas the solid circles depict […].

skin tumors = assay: skin tumor prevention experiment in mice; assay type: in vivo
Source text: In tumor-prevention experiments, the compounds of the present invention are found to prevent tumors in animals. In a representative carcinogenesis experiment, skin tumors are induced in mice according to the procedure of G. Fuerstenberger, D. L. Berry, B. Sorg, and F. Marks, "Skin Tumor Promotion by Phorbol Ester a Two-Stage Process", Proc. Natl. Acad. Sci., USA 78, 7722-7726 (1981). In replicate experiments, conducted under closely controlled conditions, and with identical strains of mice, seventeen (17) out of eighteen (18) animals in the control group developed skin tumors after a period of three (3) months. […] In the case of the treated animals, only one (1) out of the eighteen (18) animals developed a discernible skin tumor.

[7] = tested on: Herpes simplex virus (HSV-I, especially strain HSV-I-ISO 3); assay: plaque-reduction assay, Herpes simplex virus; assay type: cell-based; settings: Human alphaherpesvirus 1
[8] = refined procedure, same pH and environmental conditions, same viral strain

For CC1(C)C2CCC1(C)C(C1CCCCC1OC(=S)S)C2 (stereo not drawn), the “antiviral activity (relative to reference compound)” value [1] was “essentially the same antiviral and antitumor activity as D622” and the “antitumor activity (relative to reference compound)” value [2] was “essentially the same antiviral and antitumor activity as D622”.
With S=C(S)O[C@H]1C[C@H]2CC[C@@H]1C2 (relative stereo) [Example 6, Potassium 2-endo-bicyclo[2.2.1^1.4]-heptyl xanthate] the IC50 (same viral strain) was 3 µg/mL, the development of resistance (selected herpes viruses) was “under no conditions was resistance found to have developed” and the “variability of antitumor effectiveness with environment and pH (relative to D609)” value [3] was “somewhat less variable with environment and pH than in the case of the compound D609”.
In the case of S=C(S)O[C@@H]1C[C@H]2CC[C@@H]1C2 (relative stereo) [Example 8, Potassium 2-exo-bicyclo[2.2.1^1,4]-heptyl xanthate], the “IC50 values (relative to D611)” value [1] is reported as “essentially identical with those of the compound D611, including IC50 values”, the “antiviral activity (relative to reference compound)” value [1] is reported as “essentially identical with those of the compound D611” and the “antitumor activity (relative to reference compound)” value [2] is reported as “essentially identical with those of the compound D611”.
With S=C(S)O[C@H]1C[C@H]2CC[C@@H]1C2 (relative stereo) [Example 9, Sodium 2-endo-bicyclo [2.2.1^1,4]-heptyl xanthate] the “Virustatic properties Influenza (inhibition areola)” value (Influenza A2) was “++ (good (IA 20-30 mm))”, the “Virustatic properties Vaccine (inhibition areola)” value (Vaccine virus) was “+++ (very good (IA > 30 mm))” and the “Virustatic properties Herpes (inhibition areola)” value (Herpes virus [4]) was “+++ (very good (IA > 30 mm))”. The “antiviral activity (relative to reference compound)” value [1] was “essentially the identical antiviral and antitumor activity as the corresponding potassium salt (D611)” and the “antitumor activity (relative to reference compound)” value [2] was “essentially the identical antiviral and antitumor activity as the corresponding potassium salt (D611)”.
With Cl.NC12CC3CC(CC(C3)C1)C2 [1-Aminoadamantane hydrochloride, reference compound] the “Virustatic properties Influenza (inhibition areola)” value (Influenza A2) was “+++ (very good (IA > 30 mm))”, the “Virustatic properties Vaccine (inhibition areola)” value (Vaccine virus) was 0 and the “Virustatic properties Herpes (inhibition areola)” value (Herpes virus [4]) was 0. It also gave an inhibition at 20 µg/mL (various virus strains) of 10%.
For Nc1nc2c(ncn2COCCO)c(=O)[nH]1 [Acyclovir], the “susceptibility of herpes virus mutants arising under treatment” value (Herpes virus [5]) is listed as “considerably less susceptible to treatment with that particular drug than the initially-recognized virus”.
For S=C([S-])OC1CCCCCCCCCCC1.[Na+] [Example 1, Sodium cyclododecyl xanthate], the “Virustatic properties Influenza (inhibition areola)” value (Influenza A2) was “+++ (very good (IA > 30 mm))”, the “Virustatic properties Vaccine (inhibition areola)” value (Vaccine virus) was “+++ (very good (IA > 30 mm))” and the “Virustatic properties Herpes (inhibition areola)” value (Herpes virus [4]) was “+++ (very good (IA > 30 mm))”. The inhibition at 20 µg/mL (various virus strains) was 100%, the IC50 (same viral strain; [8]) was 2.5 µg/mL and the development of resistance (selected herpes viruses) was “under no conditions was resistance found to have developed”. For the same compound, the “variability of antitumor effectiveness with environment and pH (relative to D609)” value [3] was “somewhat less variable with environment and pH than in the case of the compound D609”.
With S=C(S)OCc1ccccc1 [Example 2, Sodium benzyl xanthate] the “Virustatic properties Influenza (inhibition areola)” value (Influenza A2) was “+ (moderate (IA 10-20 mm))”, the “Virustatic properties Vaccine (inhibition areola)” value (Vaccine virus) was “+ (moderate (IA 10-20 mm))” and the “Virustatic properties Herpes (inhibition areola)” value (Herpes virus [4]) was “+ (moderate (IA 10-20 mm))”. For the same compound, the IC50 (same viral strain; [8]) was > 30 µg/mL.
For S=C([S-])OC1CCCCC1.[Na+] [Example 3, Sodium cyclohexyl xanthate], the “Virustatic properties Influenza (inhibition areola)” value (Influenza A2) was “++ (good (IA 20-30 mm))”, the “Virustatic properties Vaccine (inhibition areola)” value (Vaccine virus) was “+++ (very good (IA > 30 mm))” and the “Virustatic properties Herpes (inhibition areola)” value (Herpes virus [4]) was “+++ (very good (IA > 30 mm))”. The inhibition at 20 µg/mL (various virus strains) was 100% and the IC50 (same viral strain; [8]) was 9.5 µg/mL.
For S=C(S)OC12CC3CC(CC(C3)C1)C2 [Example 5, Potassium adamantyl xanthate], the “Virustatic properties Influenza (inhibition areola)” value (Influenza A2) was “+ (moderate (IA 10-20 mm))”, the “Virustatic properties Vaccine (inhibition areola)” value (Vaccine virus) was “+ (moderate (IA 10-20 mm))” and the “Virustatic properties Herpes (inhibition areola)” value (Herpes virus [4]) was “+ (moderate (IA 10-20 mm))”. The IC50 (same viral strain; [8]) was > 10 µg/mL.
Compound S=C(S)OC1CC2CC1C1CCCC21 (stereo not drawn) [Example 7, Potassium 8(9)tricyclo[5.2.1.0^2,6]decyl xanthate] has an activity at 20 µg/mL (Coxsackie B5) of 4%, an activity at 20 µg/mL (HSV-I) of 2.5% and an activity at 20 µg/mL (HSV-I-ISO 3) of 1.05%. The activity at 20 µg/mL (HSV-I-WA) was 0.9%, the activity at 20 µg/mL (HSV II-HG-52) was 0.3% and the activity at 20 µg/mL (HSV I-ISO 6) was 0.1%. The activity at 20 µg/mL (VSV) was 0.05%, the activity at 5.5 µg/mL (HSV-I-A NG) was 0.1% and the IC50 (same viral strain; [8]) was 3 µg/mL. For the same compound, the development of resistance (selected herpes viruses) was “under no conditions was resistance found to have developed”, the “loss of the transforming tumor producing genomes” value ([6]; three passages) was “permanent loss of the transforming tumor producing genomes” and the “reversion of transformed phenotype” value ([6]; three succeeding passages of one week each) was “disappearance of the transformed colonies or cells and their conversion into phenotypically normal or flat revertant cells”. For the same compound, the “animals that developed a discernible skin tumor” value (skin tumors; epicutaneous, 3 micrograms per milliliter in acetone, twice weekly for 3 months, control 17 of 18) was 1 out of the eighteen (18) animals, the development of tumors (skin tumors; in words) was “almost completely impeded” and the “pH dependence of antiviral activity” value ([3]; pH 6.8 compared with 7.25-7.8) was “most effectively at a pH of 6.8”.
With CC1(C)C2CCC1(C)C(C1CCC(OC(=S)S)CC1)C2 (stereo not drawn) [Example 10, Potassium 4(or para)-isobornylcyclohexyl xanthate] the IC50 [7] was 1.9 µg/mL, the “antiviral activity (relative to reference compound)” value [1] was “essentially identical with that for the compound D609, but somewhat superior thereto” and the “antitumor activity (relative to reference compound)” value [2] was “essentially identical with that for the compound D609, but somewhat superior thereto”.
For CCCCCCCCCCCCOC(=S)[S-].[Na+] [n-Dodecyl Na, Sodium dodecyl xanthate], the “Virustatic properties Influenza (inhibition areola)” value (Influenza A2) was “+++ (very good (IA > 30 mm))”, the “Virustatic properties Vaccine (inhibition areola)” value (Vaccine virus) was “+++ (very good (IA > 30 mm))” and the “Virustatic properties Herpes (inhibition areola)” value (Herpes virus [4]) was “+++ (very good (IA > 30 mm))”. For the same compound, the inhibition at 20 µg/mL (various virus strains) was 100% and the IC50 (same viral strain; [8]) was 7 µg/mL.
For CCCCCCOC(=S)[S-].[K+] [potassium n-hexyl xanthate], the “virustatic / antiviral activity” value [1] was “active virustatic agents”.
In the case of CCCCCCOC(=S)[S-].[Na+] [sodium n-hexyl xanthate], the “virustatic / antiviral activity” value [1] is reported as “active virustatic agents”.
